# pIC50: −log10 of the molar value.
# Tested on: not listed separately
# Assay: ABTS radical cation decolorization assay
# Settings: 0.1 mM
# Protocol: (§1) In this work, the carboxamides 3a–3u, the quinolinone–cinnamic or benzoic acid hybrids 11a–11g and the reverse amides 16a–16c were tested for their antioxidant activity via five in vitro techniques; (i) the interaction with the stable free radical 2,2-diphenyl-1-picrylhydrazyl (DPPH); (ii) the inhibition of lipid peroxidation; (iii) the hydroxyl radical scavenging ability; (iv) the 2,2-azino-bis(3-ethylbenzothiazoline-6-sulfonic acid (ABTS) radical cation (ABTS·^+) reduction; and (v) the superoxide anion radical scavenging ability.
# The experimental technique used in this section was performed according to the methods of Pontiki et al.. The results were compared to the appropriate standard inhibitor Trolox.
row,Compound,ABTS% (ABTS radical cation decolorization)
1,"CC1CCCCC1NC(=O)c1c(O)c2ccccc2n(-c2ccccc2)c1=O (stereo not drawn) [Compound 3i, 4-hydroxy-N-(2-methylcyclohexyl)-2-oxo-1-phenyl-1,2-dihydroquinoline-3-carboxamide]",no
2,"Cn1c(=O)c(C(=O)Nc2ccccc2O)c(O)c2ccccc21 [Compound 3j, 4-hydroxy-N-(2-hydroxyphenyl)-1-methyl-2-oxo-1,2-dihydroquinoline-3-carboxamide]",49.7%
3,"Cc1ccccc1NC(=O)c1c(O)c2ccccc2n(C)c1=O [Compound 3k, 4-hydroxy-1-methyl-2-oxo-N-(o-tolyl)-1,2,dihydroquinoline-3carboxamide]",54.5%
4,"Cc1ccc(NC(=O)c2c(O)c3ccccc3n(C)c2=O)cc1 [Compound 3l, 4-hydroxy-1-methyl-2-oxo-N-(p-tolyl)-1,2-dihydroquinoline-3-carboxamide]",no
5,"Cn1c(=O)c(C(=O)Nc2ccc(F)cc2)c(O)c2ccccc21 [Compound 3m, N-(4-fluorophenyl)-4-hydroxy-1-methyl-2-oxo-1,2-dihydroquinoline-3-carboxamide]",12.4%
6,"O=C(NCCc1ccc(O)cc1)c1c(O)c2ccccc2n(-c2ccccc2)c1=O [Compound 3n, 4-hydroxy-N-(4-hydroxyphenethyl)-2-oxo-1-phenyl-1,2-dihydroquinoline-3-carboxamide]",no

# Biological target: T1, soybean lipoxygenase (Glycine max, UniProt P08170)
# T1 construct: purchased Sigma Chemical, Co. (St. Louis, MO, USA)
# T1 sequence (P08170 1-839): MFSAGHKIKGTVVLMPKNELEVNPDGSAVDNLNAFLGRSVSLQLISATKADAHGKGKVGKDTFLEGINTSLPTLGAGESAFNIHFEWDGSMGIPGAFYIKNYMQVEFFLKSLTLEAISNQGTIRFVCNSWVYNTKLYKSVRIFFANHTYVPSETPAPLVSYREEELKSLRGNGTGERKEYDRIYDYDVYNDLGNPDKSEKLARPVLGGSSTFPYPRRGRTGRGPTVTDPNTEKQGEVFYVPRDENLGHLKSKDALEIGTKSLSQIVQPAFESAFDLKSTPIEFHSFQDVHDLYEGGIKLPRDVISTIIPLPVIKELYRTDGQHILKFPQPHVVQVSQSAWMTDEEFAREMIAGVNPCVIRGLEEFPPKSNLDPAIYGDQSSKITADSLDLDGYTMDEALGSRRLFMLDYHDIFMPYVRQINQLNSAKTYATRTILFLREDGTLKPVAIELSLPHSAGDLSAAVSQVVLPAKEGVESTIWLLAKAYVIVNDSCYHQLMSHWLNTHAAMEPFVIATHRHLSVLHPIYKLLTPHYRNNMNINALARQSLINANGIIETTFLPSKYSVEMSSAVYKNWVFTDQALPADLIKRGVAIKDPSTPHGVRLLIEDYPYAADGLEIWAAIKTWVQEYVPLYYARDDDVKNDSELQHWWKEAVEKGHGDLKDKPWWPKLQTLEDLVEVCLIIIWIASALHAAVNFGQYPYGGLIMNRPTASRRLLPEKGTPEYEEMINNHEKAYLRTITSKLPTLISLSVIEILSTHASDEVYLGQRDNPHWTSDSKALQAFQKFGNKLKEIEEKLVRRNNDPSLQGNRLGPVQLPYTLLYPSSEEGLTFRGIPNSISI
# Assay: Soybean LOX inhibition in vitro (UV absorbance-based assay)
# Assay type: biochemical
# Settings: not given
# Protocol: For this study, the UV absorbance-based soybean LOX assay was used.
# The assay for the determination of the inhibition of soybean LOX was performed according to the methods of Hadjipavlou-Litina et al., which we have also used in our previous works.
row,Compound,pIC50
1,"Cn1c(=O)c(C(=O)Nc2ccccc2O)c(O)c2ccccc21 [Compound 3j, 4-hydroxy-N-(2-hydroxyphenyl)-1-methyl-2-oxo-1,2-dihydroquinoline-3-carboxamide]",4.00
2,"Cc1ccccc1NC(=O)c1c(O)c2ccccc2n(C)c1=O [Compound 3k, 4-hydroxy-1-methyl-2-oxo-N-(o-tolyl)-1,2,dihydroquinoline-3carboxamide]",3.50
3,"Cc1ccc(NC(=O)c2c(O)c3ccccc3n(C)c2=O)cc1 [Compound 3l, 4-hydroxy-1-methyl-2-oxo-N-(p-tolyl)-1,2-dihydroquinoline-3-carboxamide]",4.35
4,"O=C(NCCc1ccc(O)cc1)c1c(O)c2ccccc2n(-c2ccccc2)c1=O [Compound 3n, 4-hydroxy-N-(4-hydroxyphenethyl)-2-oxo-1-phenyl-1,2-dihydroquinoline-3-carboxamide]",4.07

# Same assay, conditions: 0.1 mM
Compound,Inhibition of Soybean Lipoxygenase % at 0.1 mM,inhibition at 100 µM [%]
"CC1CCCCC1NC(=O)c1c(O)c2ccccc2n(-c2ccccc2)c1=O (stereo not drawn) [Compound 3i, 4-hydroxy-N-(2-methylcyclohexyl)-2-oxo-1-phenyl-1,2-dihydroquinoline-3-carboxamide]",inactive and no,–
"Cn1c(=O)c(C(=O)Nc2ccc(F)cc2)c(O)c2ccccc21 [Compound 3m, N-(4-fluorophenyl)-4-hydroxy-1-methyl-2-oxo-1,2-dihydroquinoline-3-carboxamide]",–,15

# Tested on: not listed separately
# Assay: Competition with DMSO for hydroxyl radicals
# Settings: 0.1 mM
# Protocol: as §1
# The assay was performed according to the methods of Pontiki et al. Trolox was used as a reference compound [78].
row,Compound,OH% (hydroxyl radical scavenging)
1,"CC1CCCCC1NC(=O)c1c(O)c2ccccc2n(-c2ccccc2)c1=O (stereo not drawn) [Compound 3i, 4-hydroxy-N-(2-methylcyclohexyl)-2-oxo-1-phenyl-1,2-dihydroquinoline-3-carboxamide]",78.1%
2,"Cn1c(=O)c(C(=O)Nc2ccccc2O)c(O)c2ccccc21 [Compound 3j, 4-hydroxy-N-(2-hydroxyphenyl)-1-methyl-2-oxo-1,2-dihydroquinoline-3-carboxamide]",100%
3,"Cc1ccccc1NC(=O)c1c(O)c2ccccc2n(C)c1=O [Compound 3k, 4-hydroxy-1-methyl-2-oxo-N-(o-tolyl)-1,2,dihydroquinoline-3carboxamide]",totally inactive and no
4,"Cc1ccc(NC(=O)c2c(O)c3ccccc3n(C)c2=O)cc1 [Compound 3l, 4-hydroxy-1-methyl-2-oxo-N-(p-tolyl)-1,2-dihydroquinoline-3-carboxamide]",53.7%
5,"Cn1c(=O)c(C(=O)Nc2ccc(F)cc2)c(O)c2ccccc21 [Compound 3m, N-(4-fluorophenyl)-4-hydroxy-1-methyl-2-oxo-1,2-dihydroquinoline-3-carboxamide]",94.0%
6,"O=C(NCCc1ccc(O)cc1)c1c(O)c2ccccc2n(-c2ccccc2)c1=O [Compound 3n, 4-hydroxy-N-(4-hydroxyphenethyl)-2-oxo-1-phenyl-1,2-dihydroquinoline-3-carboxamide]",14.9%

# Tested on: not listed separately
# Assay: Interaction with the stable free radical DPPH (reducing activity)
# Settings: 100 μM, 20 min
# Protocol: as §1
row,Compound,Interaction with the Free Radical DPPH (%)
1,"CC1CCCCC1NC(=O)c1c(O)c2ccccc2n(-c2ccccc2)c1=O (stereo not drawn) [Compound 3i, 4-hydroxy-N-(2-methylcyclohexyl)-2-oxo-1-phenyl-1,2-dihydroquinoline-3-carboxamide]",5.2
2,"Cn1c(=O)c(C(=O)Nc2ccccc2O)c(O)c2ccccc21 [Compound 3j, 4-hydroxy-N-(2-hydroxyphenyl)-1-methyl-2-oxo-1,2-dihydroquinoline-3-carboxamide]",32.5
3,"Cc1ccccc1NC(=O)c1c(O)c2ccccc2n(C)c1=O [Compound 3k, 4-hydroxy-1-methyl-2-oxo-N-(o-tolyl)-1,2,dihydroquinoline-3carboxamide]",1.4
4,"Cc1ccc(NC(=O)c2c(O)c3ccccc3n(C)c2=O)cc1 [Compound 3l, 4-hydroxy-1-methyl-2-oxo-N-(p-tolyl)-1,2-dihydroquinoline-3-carboxamide]",2.6
5,"Cn1c(=O)c(C(=O)Nc2ccc(F)cc2)c(O)c2ccccc21 [Compound 3m, N-(4-fluorophenyl)-4-hydroxy-1-methyl-2-oxo-1,2-dihydroquinoline-3-carboxamide]",3.1
6,"O=C(NCCc1ccc(O)cc1)c1c(O)c2ccccc2n(-c2ccccc2)c1=O [Compound 3n, 4-hydroxy-N-(4-hydroxyphenethyl)-2-oxo-1-phenyl-1,2-dihydroquinoline-3-carboxamide]",13.9

# Same assay, conditions: 100 μM, 60 min
row,Compound,Interaction with the Free Radical DPPH (%)
1,"CC1CCCCC1NC(=O)c1c(O)c2ccccc2n(-c2ccccc2)c1=O (stereo not drawn) [Compound 3i, 4-hydroxy-N-(2-methylcyclohexyl)-2-oxo-1-phenyl-1,2-dihydroquinoline-3-carboxamide]",3.7
2,"Cn1c(=O)c(C(=O)Nc2ccccc2O)c(O)c2ccccc21 [Compound 3j, 4-hydroxy-N-(2-hydroxyphenyl)-1-methyl-2-oxo-1,2-dihydroquinoline-3-carboxamide]",46.5
3,"Cc1ccccc1NC(=O)c1c(O)c2ccccc2n(C)c1=O [Compound 3k, 4-hydroxy-1-methyl-2-oxo-N-(o-tolyl)-1,2,dihydroquinoline-3carboxamide]",11.8
4,"Cc1ccc(NC(=O)c2c(O)c3ccccc3n(C)c2=O)cc1 [Compound 3l, 4-hydroxy-1-methyl-2-oxo-N-(p-tolyl)-1,2-dihydroquinoline-3-carboxamide]",2.6
5,"Cn1c(=O)c(C(=O)Nc2ccc(F)cc2)c(O)c2ccccc21 [Compound 3m, N-(4-fluorophenyl)-4-hydroxy-1-methyl-2-oxo-1,2-dihydroquinoline-3-carboxamide]",1.2
6,"O=C(NCCc1ccc(O)cc1)c1c(O)c2ccccc2n(-c2ccccc2)c1=O [Compound 3n, 4-hydroxy-N-(4-hydroxyphenethyl)-2-oxo-1-phenyl-1,2-dihydroquinoline-3-carboxamide]",19.2

# Same assay, conditions: reaction time not given
row,Compound,"DPPH radical scavenging activity, time not specified"
1,"Cc1ccccc1NC(=O)c1c(O)c2ccccc2n(C)c1=O [Compound 3k, 4-hydroxy-1-methyl-2-oxo-N-(o-tolyl)-1,2,dihydroquinoline-3carboxamide]",inactive
2,"Cc1ccc(NC(=O)c2c(O)c3ccccc3n(C)c2=O)cc1 [Compound 3l, 4-hydroxy-1-methyl-2-oxo-N-(p-tolyl)-1,2-dihydroquinoline-3-carboxamide]",inactive
3,"Cn1c(=O)c(C(=O)Nc2ccc(F)cc2)c(O)c2ccccc21 [Compound 3m, N-(4-fluorophenyl)-4-hydroxy-1-methyl-2-oxo-1,2-dihydroquinoline-3-carboxamide]",inactive

# Tested on: not listed separately
# Assay: Non-enzymatic superoxide anion radical scavenging assay (PMS)
# Settings: 0.1 mM
# Protocol: as §1
# The experimental technique used for this assay was performed according to our previous works. Caffeic acid was used as an appropriate standard.
row,Compound,PMS% (superoxide anion radical scavenging)
1,"CC1CCCCC1NC(=O)c1c(O)c2ccccc2n(-c2ccccc2)c1=O (stereo not drawn) [Compound 3i, 4-hydroxy-N-(2-methylcyclohexyl)-2-oxo-1-phenyl-1,2-dihydroquinoline-3-carboxamide]",no
2,"Cn1c(=O)c(C(=O)Nc2ccccc2O)c(O)c2ccccc21 [Compound 3j, 4-hydroxy-N-(2-hydroxyphenyl)-1-methyl-2-oxo-1,2-dihydroquinoline-3-carboxamide]",no
3,"Cc1ccccc1NC(=O)c1c(O)c2ccccc2n(C)c1=O [Compound 3k, 4-hydroxy-1-methyl-2-oxo-N-(o-tolyl)-1,2,dihydroquinoline-3carboxamide]",61.5%
4,"Cc1ccc(NC(=O)c2c(O)c3ccccc3n(C)c2=O)cc1 [Compound 3l, 4-hydroxy-1-methyl-2-oxo-N-(p-tolyl)-1,2-dihydroquinoline-3-carboxamide]",no
5,"Cn1c(=O)c(C(=O)Nc2ccc(F)cc2)c(O)c2ccccc21 [Compound 3m, N-(4-fluorophenyl)-4-hydroxy-1-methyl-2-oxo-1,2-dihydroquinoline-3-carboxamide]",no
6,"O=C(NCCc1ccc(O)cc1)c1c(O)c2ccccc2n(-c2ccccc2)c1=O [Compound 3n, 4-hydroxy-N-(4-hydroxyphenethyl)-2-oxo-1-phenyl-1,2-dihydroquinoline-3-carboxamide]",no

# Tested on: not listed separately
# Assay: Inhibition of lipid peroxidation of linoleic acid induced by AAPH radical
# Settings: 100 μM
# Protocol: as §1
# The assay for the determination of the inhibition of linoleic acid peroxidation induced by the free radical initiator […](2-amidinopropane) dihydrochloride (AAPH) was performed according to the methods of Hadjipavlou-Litina et al., which we have also used in our previous works.
row,Compound,Inhibition of Lipid Peroxidation of Linoleic Acid Induced by AAPH Radical (%)
1,"CC1CCCCC1NC(=O)c1c(O)c2ccccc2n(-c2ccccc2)c1=O (stereo not drawn) [Compound 3i, 4-hydroxy-N-(2-methylcyclohexyl)-2-oxo-1-phenyl-1,2-dihydroquinoline-3-carboxamide]",36%
2,"Cn1c(=O)c(C(=O)Nc2ccccc2O)c(O)c2ccccc21 [Compound 3j, 4-hydroxy-N-(2-hydroxyphenyl)-1-methyl-2-oxo-1,2-dihydroquinoline-3-carboxamide]",32.8%
3,"Cc1ccccc1NC(=O)c1c(O)c2ccccc2n(C)c1=O [Compound 3k, 4-hydroxy-1-methyl-2-oxo-N-(o-tolyl)-1,2,dihydroquinoline-3carboxamide]",41.4%
4,"Cc1ccc(NC(=O)c2c(O)c3ccccc3n(C)c2=O)cc1 [Compound 3l, 4-hydroxy-1-methyl-2-oxo-N-(p-tolyl)-1,2-dihydroquinoline-3-carboxamide]",no
5,"Cn1c(=O)c(C(=O)Nc2ccc(F)cc2)c(O)c2ccccc21 [Compound 3m, N-(4-fluorophenyl)-4-hydroxy-1-methyl-2-oxo-1,2-dihydroquinoline-3-carboxamide]",11.3%
6,"O=C(NCCc1ccc(O)cc1)c1c(O)c2ccccc2n(-c2ccccc2)c1=O [Compound 3n, 4-hydroxy-N-(4-hydroxyphenethyl)-2-oxo-1-phenyl-1,2-dihydroquinoline-3-carboxamide]",100%

# — publication PMC10780633, “Novel Multi-Target Agents Based on the Privileged Structure of 4-Hydroxy-2-quinolinone” (Molecules, 2023)
